The results in this text go back to EPA's ToxValDB 9.5 (doi:10.2903/j.efsa.2008.144r).

Values after ≈ are worked out from the molar mass of the structure shown.

The test system of one data set is Apis mellifera. To be noted: acute; duration: 48 hours; oral; unspecified; mortality.
The test system of the next data set is Bibionidae. The conditions noted are these: chronic/long-term; duration: 20 days.
In the next data set the test system is Daphnia magna. To be noted: acute; duration: 48 hours; reproduction.
The subject of a further data set is Lepomis macrochirus. The conditions noted are these: acute; duration: 96 hours; mortality.
The subject of a further data set is Oncorhynchus mykiss. The conditions noted are these: chronic/long-term; duration: 94 days.
A further data set concerns Oryctolagus sp. To be noted: developmental; development.
The next data set relates to Pleurozium sp. To be noted: acute; duration: 72 hours; biomass.
A further data set concerns Zea sp. The conditions noted are these: not reported; other.
A further data set deals with Aphidius rhopalosiphi. As to the kind of experiment: LR50; higher = less toxic. To be noted: not reported; mortality.

In the case of `CC(Cc1ccc(C(C)(C)C)cc1)CN1C[C@@H](C)O[C@@H](C)C1` (stereo partly drawn) [(2R,6S)-Fenpropimorph], the LD50 is > 95.6 µg/piece with Apis mellifera; > 2000 mg/kg with Colinus virginianus (acute, oral, mortality); 2230 mg/kg in the data set on Rattus norvegicus (acute, oral, mortality). Also, the NOEC in the data set with Bibionidae was 0.13 mg/L; with Colinus virginianus (reproduction developmental), > 30.3 mg/kg-day; in the data set on Daphnia magna it was 0.024 mg/L; in the data set on Oncorhynchus mykiss, 0.00016 mg/L; in the data set on Pleurozium sp., 0.005 mg/L; in the data set on Tagia sp. (chronic/long-term), 9.92 mg/kg. The LC50 is 2.3 µg/mL (≈ 7.58 µM) with Lepomis macrochirus and > 1000 mg/kg in the data set with Tagia sp. (acute, duration: 14 days, mortality). The NOAEL came out at 15 mg/kg-day in the data set on Oryctolagus sp.; 0.3 mg/kg-day with Rattus norvegicus (chronic, duration: 2 years, organ weight); 0.7 mg/kg-day in the data set with Rattus norvegicus (subchronic, duration: 90 days, oral, clinical chemistry). For the same compound, in the data set with Rattus norvegicus (reproduction developmental, duration: 24 months, reproduction), the NOAEC was determined as 16 mg/kg-day. Further, the LEL with Zea sp. was 1690 g/ha. The compound also returned an LR50 in the data set on Aphidius rhopalosiphi of 25.7 g/ha.

Broadly, the NOAEL is the highest dose or exposure tested at which no adverse effect was seen.
